Experimental data from patent US20060110790A1, “Expression system for large functional proteins” (priority 2002, published 2006).

What was measured:
Assay type in all cases: binding
[1] = biological target: T1, co-expressed N and C halves of ABCR (Homo sapiens, UniProt P78363); test: 8-azido-ATP photoaffinity labeling of membranes from transfected cells; conditions: 1 mM ATP added prior to photoaffinity labeling; 1.5 μM 8-azido-[α-32P]ATP; C-half labeled; FIG. 5A lane 4
T1 construct: The cDNAs coding for the N-half (amino acids 1-1325) and C-half (amino acids 1326-2273) of ABCR; made in house; host or cells: COS-1 cells, co-transfected
T1 sequence (P78363 1-1325): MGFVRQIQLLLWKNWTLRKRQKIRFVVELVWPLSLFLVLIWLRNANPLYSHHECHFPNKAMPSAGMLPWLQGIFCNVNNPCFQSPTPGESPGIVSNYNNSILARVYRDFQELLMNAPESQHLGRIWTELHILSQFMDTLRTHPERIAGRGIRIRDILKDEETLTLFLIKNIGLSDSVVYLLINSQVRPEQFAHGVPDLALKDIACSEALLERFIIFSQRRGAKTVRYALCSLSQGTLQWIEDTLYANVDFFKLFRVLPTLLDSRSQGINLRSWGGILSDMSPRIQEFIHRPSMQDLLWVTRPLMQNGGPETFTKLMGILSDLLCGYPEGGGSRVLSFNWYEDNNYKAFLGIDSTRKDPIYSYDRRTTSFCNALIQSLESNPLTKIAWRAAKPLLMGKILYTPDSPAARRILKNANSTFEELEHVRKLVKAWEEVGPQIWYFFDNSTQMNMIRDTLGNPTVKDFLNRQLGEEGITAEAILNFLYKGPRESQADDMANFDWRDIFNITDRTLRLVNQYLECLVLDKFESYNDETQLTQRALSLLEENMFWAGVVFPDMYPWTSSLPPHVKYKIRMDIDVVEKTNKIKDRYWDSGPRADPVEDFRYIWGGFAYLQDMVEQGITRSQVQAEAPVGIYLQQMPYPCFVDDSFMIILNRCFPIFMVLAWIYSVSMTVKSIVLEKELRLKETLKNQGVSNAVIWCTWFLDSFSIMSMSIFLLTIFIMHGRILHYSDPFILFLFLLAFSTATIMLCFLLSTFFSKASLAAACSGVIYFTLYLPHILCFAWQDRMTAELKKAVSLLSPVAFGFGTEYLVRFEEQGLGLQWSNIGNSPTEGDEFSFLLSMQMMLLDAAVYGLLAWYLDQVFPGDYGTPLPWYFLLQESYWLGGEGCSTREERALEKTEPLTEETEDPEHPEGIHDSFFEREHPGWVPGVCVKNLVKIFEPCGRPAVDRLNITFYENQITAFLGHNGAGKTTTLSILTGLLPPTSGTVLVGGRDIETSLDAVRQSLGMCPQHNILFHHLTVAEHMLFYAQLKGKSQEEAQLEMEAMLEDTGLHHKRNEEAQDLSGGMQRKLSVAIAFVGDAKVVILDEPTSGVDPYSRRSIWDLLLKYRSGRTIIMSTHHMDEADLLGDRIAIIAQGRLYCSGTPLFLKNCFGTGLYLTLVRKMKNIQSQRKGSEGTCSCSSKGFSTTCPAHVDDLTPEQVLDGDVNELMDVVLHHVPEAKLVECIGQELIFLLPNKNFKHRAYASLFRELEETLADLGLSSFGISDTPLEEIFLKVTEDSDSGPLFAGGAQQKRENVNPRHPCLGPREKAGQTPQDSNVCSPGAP
T1 sequence (P78363 1326-2273): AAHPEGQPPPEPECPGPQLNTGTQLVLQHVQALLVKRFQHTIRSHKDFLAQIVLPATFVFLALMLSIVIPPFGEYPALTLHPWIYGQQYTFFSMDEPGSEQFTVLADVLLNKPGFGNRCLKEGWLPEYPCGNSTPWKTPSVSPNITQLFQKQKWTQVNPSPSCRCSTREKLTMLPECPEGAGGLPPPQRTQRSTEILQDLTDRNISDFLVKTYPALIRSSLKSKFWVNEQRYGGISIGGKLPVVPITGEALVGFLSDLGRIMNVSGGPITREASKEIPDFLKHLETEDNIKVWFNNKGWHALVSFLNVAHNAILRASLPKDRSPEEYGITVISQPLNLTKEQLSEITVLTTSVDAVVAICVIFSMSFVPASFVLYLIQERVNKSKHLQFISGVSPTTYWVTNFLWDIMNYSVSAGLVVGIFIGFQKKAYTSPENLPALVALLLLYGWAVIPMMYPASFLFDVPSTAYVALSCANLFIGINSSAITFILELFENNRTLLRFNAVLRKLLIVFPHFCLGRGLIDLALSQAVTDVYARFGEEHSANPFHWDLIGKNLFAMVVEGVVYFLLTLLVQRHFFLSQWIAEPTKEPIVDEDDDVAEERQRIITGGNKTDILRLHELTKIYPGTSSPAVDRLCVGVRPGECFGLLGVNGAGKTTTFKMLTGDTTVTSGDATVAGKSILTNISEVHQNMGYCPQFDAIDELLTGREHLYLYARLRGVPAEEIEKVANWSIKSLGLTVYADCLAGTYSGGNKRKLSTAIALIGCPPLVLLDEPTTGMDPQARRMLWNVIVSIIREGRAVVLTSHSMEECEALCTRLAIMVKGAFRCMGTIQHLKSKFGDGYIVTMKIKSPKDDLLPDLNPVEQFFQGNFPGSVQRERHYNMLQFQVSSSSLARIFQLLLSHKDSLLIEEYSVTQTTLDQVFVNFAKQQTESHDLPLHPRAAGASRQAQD
Description: (§1) FIG. 5. Azido-ATP photoaffinity labeling of the N and C halves of ABCR. A. Membranes from transfected cells expressing either full-length ABCR (lanes 1 & 2) or co-expressing the N and C halves (lanes 3 & 4) were photoaffinity labeled with 1.5 μM 8-azido-[α-^32P]ATP in the absence or presence of 1 mM ATP. The expressed protein was isolated on a Rim3F4-Sepharose matrix prior to analysis by SDS-PAGE and phosphorimage analysis. Left panel: Coomassie blue stained gel. Right panel: Azido-ATP labeling. B. Membranes from transfected cells expressing full-length ABCR, the N-half, the C-half, or both halves (NC halves) were labeled with 8-azido-[α-^32P] and isolated as above. Similar amounts of protein were loaded in each lane of the gel as judged by staining with Coomassie brilliant blue (not shown). C. Rod outer segment membranes were incubated with (+) or without (−) trypsin and subsequently labeled with azido-[α-^32P]ATP. ABCR and the associated N and C complex were purified on a Rim3F4-Sepharose matrix. Left panel: Azido-ATP labeling of the full-length ABCR (220 kDa) and the C-half (114 kDa); N-half was not labeled. Right panel: Western blots labeled for the full-length ABCR and C-half with the Rim3F4 antibody and the N-half with the Rim5B4 antibody. […]

full-length ABCR = full-length ABCR (Homo sapiens, UniProt P78363); test: as above; set-up: Membranes from transfected cells expressing either full-length ABCR (lanes 1 & 2); expressed in transfected cells; host or cells: transfected cells (COS-1 or EBNA293); conditions: 1 mM ATP added prior to photoaffinity labeling; 1.5 μM 8-azido-[α-32P]ATP; FIG. 5A lane 2
Description: as §1

ABCR = biological target: T2, ABCR (Homo sapiens, UniProt P78363); test: 8-azido-ATP/ADP nucleotide trapping in membranes from transfected cells; conditions: 800 μM orthovanadate, 5 μM 8-azido-[α-32P]ATP, 37° C.
T2 construct: Membranes from transfected cells expressing either full-length ABCR (lanes 1 & 2) or co-expressing the N and C halves; expressed in transfected cells; host or cells: transfected cells (COS-1 or EBNA293)
Description: FIG. 7. Nucleotide trapping by ABCR and co-expressed N and C halves. A. Effect of orthovanadate on nucleotide trapping. Membranes from transfected cells were incubated with 5 μM 8-azido-[α-^32P]ATP at 37° C., washed, and tightly bound nucleotides were UV crosslinked. Lane 1, full-length ABCR; lane 2, full-length ABCR incubated with 800 μM orthovanadate; lane 3, co-expressed N and C halves; lane 4, co-expressed N- and C-halves incubated with 800 μM orthovanadate. B. Effect of temperature and retinal on nucleotide trapping. Lane 1, full-length ABCR labeled at 0° C.; lane 2, full-length ABCR labeled at 37° C.; lane 3, full-length ABCR labeled at 37° C. in the presence of 50 μM all-trans retinal; lane 4, co-expressed N and C halves labeled at 0° C.; lane 5, co-expressed N and C halves labeled at 37° C.; lane 6, co-expressed N and C halves labeled at 37° C. in the presence of 50 μM all-trans retinal.
8-Azido-ATP Trapping—Membranes were incubated with 5 μM 8-azido-[α-^32P]ATP in 50 μl of labeling buffer with or without 800 μM sodium orthovanadate for 10 min at 37° C. All-trans retinal and 50 μM DTT were added where indicated. Binding was stopped by the addition of ice-cold 20 mM Tris-HCl, pH 7.4, the membranes were collected by centrifugation and washed one more time. Samples exposed to orthovanadate were washed in the presence of 800 μM orthovanadate. […]

T2 sequence (P78363 whole entry): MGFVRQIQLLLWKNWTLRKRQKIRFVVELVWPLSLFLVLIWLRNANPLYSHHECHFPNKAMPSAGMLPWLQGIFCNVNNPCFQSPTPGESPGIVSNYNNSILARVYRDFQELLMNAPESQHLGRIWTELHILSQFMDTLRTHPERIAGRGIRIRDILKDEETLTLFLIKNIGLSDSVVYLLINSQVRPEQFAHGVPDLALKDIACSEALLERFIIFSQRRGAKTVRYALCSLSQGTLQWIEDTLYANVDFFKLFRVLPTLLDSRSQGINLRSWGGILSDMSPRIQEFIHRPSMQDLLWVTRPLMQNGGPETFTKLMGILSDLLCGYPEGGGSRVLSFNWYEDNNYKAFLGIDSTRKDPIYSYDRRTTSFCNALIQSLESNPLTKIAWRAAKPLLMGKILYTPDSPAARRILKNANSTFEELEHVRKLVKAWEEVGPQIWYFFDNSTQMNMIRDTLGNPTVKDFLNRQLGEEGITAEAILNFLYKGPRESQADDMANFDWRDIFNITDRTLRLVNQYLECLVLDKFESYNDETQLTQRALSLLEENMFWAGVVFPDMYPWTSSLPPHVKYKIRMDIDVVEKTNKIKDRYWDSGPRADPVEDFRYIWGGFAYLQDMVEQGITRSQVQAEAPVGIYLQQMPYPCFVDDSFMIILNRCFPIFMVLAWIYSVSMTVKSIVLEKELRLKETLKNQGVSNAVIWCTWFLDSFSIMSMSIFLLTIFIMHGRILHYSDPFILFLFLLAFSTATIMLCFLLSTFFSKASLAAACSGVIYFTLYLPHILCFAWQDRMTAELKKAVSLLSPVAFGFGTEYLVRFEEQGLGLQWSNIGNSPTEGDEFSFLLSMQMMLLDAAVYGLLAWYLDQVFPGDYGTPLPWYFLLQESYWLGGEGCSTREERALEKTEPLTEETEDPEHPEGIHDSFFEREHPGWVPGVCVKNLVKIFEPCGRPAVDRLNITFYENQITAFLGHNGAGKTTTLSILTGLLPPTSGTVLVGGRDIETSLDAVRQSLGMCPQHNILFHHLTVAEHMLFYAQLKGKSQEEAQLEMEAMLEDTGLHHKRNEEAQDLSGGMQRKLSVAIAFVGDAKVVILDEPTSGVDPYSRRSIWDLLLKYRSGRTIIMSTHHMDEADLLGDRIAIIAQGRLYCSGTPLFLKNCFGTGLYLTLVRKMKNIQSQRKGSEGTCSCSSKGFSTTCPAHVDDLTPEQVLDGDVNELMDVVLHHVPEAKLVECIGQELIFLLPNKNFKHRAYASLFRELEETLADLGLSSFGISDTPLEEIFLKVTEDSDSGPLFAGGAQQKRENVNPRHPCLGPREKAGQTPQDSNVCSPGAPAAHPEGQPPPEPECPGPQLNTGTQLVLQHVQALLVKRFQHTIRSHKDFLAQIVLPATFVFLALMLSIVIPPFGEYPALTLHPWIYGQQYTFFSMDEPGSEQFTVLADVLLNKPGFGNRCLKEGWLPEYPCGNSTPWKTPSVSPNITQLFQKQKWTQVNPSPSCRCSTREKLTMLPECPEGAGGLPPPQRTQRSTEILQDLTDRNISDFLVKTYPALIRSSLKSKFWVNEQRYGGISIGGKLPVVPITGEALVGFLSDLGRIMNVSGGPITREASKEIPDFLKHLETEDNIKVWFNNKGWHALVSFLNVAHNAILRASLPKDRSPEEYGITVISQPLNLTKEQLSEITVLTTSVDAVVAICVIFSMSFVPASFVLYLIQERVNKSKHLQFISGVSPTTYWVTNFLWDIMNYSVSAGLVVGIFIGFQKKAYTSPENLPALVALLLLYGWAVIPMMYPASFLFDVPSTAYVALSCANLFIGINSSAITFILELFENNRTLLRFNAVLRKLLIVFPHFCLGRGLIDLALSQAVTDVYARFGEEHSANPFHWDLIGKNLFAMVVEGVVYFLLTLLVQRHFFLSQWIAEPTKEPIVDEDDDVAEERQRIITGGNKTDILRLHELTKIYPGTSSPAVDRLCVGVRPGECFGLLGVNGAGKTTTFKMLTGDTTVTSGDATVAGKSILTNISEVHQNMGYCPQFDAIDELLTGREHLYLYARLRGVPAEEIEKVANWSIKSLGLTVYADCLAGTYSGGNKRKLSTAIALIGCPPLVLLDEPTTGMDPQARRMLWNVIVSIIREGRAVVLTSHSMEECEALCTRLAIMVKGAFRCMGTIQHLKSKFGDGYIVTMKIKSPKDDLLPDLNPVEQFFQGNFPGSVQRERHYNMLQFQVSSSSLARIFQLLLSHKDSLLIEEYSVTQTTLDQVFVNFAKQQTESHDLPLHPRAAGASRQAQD
Sequence of full-length ABCR (P78363 whole entry): as above

effect on 8-azido-ATP labeling [1] | effect on 8-azido-ATP labeling (full-length ABCR) | effect on 8-azido ATP/ADP trapping (ABCR) | Structure (SMILES)
essentially abolished | essentially abolished | – | Nc1ncnc2c1ncn2[C@@H]1O[C@H](COP(=O)(O)OP(=O)(O)OP(=O)(O)O)[C@@H](O)[C@H]1O [ATP]
– | – | not dependent | [Na+].[Na+].[Na+].[O]=[V]([O-])([O-])[O-] [sodium orthovanadate]
